Results as given in patent publication US20210379020A1, “COMPOUNDS FOR THE TREATMENT OF MALARIA” (Merck Sharp & Dohme Corp., priority 2016, published 2021).

system: asexual P. falciparum 3D7 parasites; test: P. falciparum growth inhibition assay with LDH activity readout (Assay 1); format: cell-based, Plasmodium falciparum; settings: 3D7 strain, 72 h incubation, LDH activity read by absorbance at 650 nm
Protocol: A modified version of the assay described in Gamo, F. J., Sanz, L. M., Vidal, J., de Cozar, C., Alvarez, E., Lavandera, J. L., Vanderwall, D. E., Green, D. V., Kumar, V., Hasan, S., Brown, J. R., Peishoff, C. E., Cardon, L. R., Garcia-Bustos, J. F., Nature, 465 (2010) 305-310 (Gamo et al.) was used to assess the activity of compounds against asexual P. falciparum 3D7 parasites. Compounds were pre-dispensed in 384-well plates, RPMI/AlbuMAX growth media was added and P. falciparum inoculated. Plates were incubated for 72 h and then frozen at −80° C. overnight. LDH activity was quantified with the modified cofactor 3-acetylpyridine adenine dinucleotide (APAD) (Sigma Aldrich) by measuring absorbance of the tetrazolium indicator nitro blue tetrazolium (NBT) (Sigma Aldrich) at 650 nm.
An inoculum of synchronous P. falciparum (3D7 strain) parasitized red blood cells (PRBC) at 0.7% parasitaemia and 2% haematocrit in RPMI-1640, 5% AlbuMAX, 2% D-sucrose, 0.3% glutamine and 150 μM hypoxanthine was used for the assay.
Compound master plates (384-well) were prepared by a 10 pt serial dilution of compounds, from 1 mM to 50.8 nM, in columns 3-12 and 13-22. DMSO was dispensed into columns 1 and 23 of the compound master plate to be used as the positive growth control (100% viability). […] Intermediate compound dilution plates were prepared by dispensing 1 μl from each well of the compound master plate into 11.5 μl of RPMI/AlbuMAX growth media. Duplicate assay plates (384-well) were then prepared by dispensing 0.5 μL of compound from the intermediate dilution plates into 9.5 μl of RPMI/AlbuMAX growth media. The parasite inoculum (30 μL) was dispensed into the assay plates containing compounds using a Multidrop dispenser (Thermo Scientific) such that the final assay volume was 40 μL and final compound concentration was 1 μM-0.05 nM (the volume of compound addition can be adjusted to the preferred and agreed screening concentration). The final DMSO concentration was 0.1% (ideally 0.2% to limit toxicity to parasites), but this is dependent on volume of compound DMSO stock solution that can be supplied. Plates were incubated at 37° C. for 72 h in an atmosphere of 5% CO2, 5% O2, […].
After 72 h of incubation, plates were frozen at −80° C. overnight and then thawed at room temperature for at least 4 h. To evaluate LDH activity, 45 μL of freshly made reaction mix (174 mM sodium L-lactate (Sigma Aldrich), 214 μM 3-acetyl pyridine adenine dinucleotide (APAD) (Sigma Aldrich), 270 μM nitro blue tetrazolium chloride (NBT) (Sigma Aldrich), 4.35 U/mL diaphorase (from Clostridium kluyveri) (Sigma Aldrich), 0.7% Tween 20, 100 mM Tris-HCl pH 7.5) was dispensed using a Multidrop dispenser (Thermo Scientific). Plates were shaken to ensure mixing and absorbance at 650 nm was monitored using a Perkin Elmer Envision plate reader after 30 min of incubation at room temperature. Data were normalized to percent growth inhibition using positive and negative controls, and analysed using TIBCO Spotfire software.
P. falciparum 3D7 strain was grown as described in Assay 1, at 37° C. for 72 hours. The culture was frozen at −80° C. overnight. Cultures were thawed at room temperature for at least 4 hours and the reaction mixture described in Assay 1 was made in order to measure the possible direct inhibition of LDH by the following compounds, assayed as above in Assay 1.

| Structure (SMILES) | IC50 [nM] |
| --- | --- |
| CC(=O)N1CCN(C(=O)c2cc(F)cc(CN3C(=N)NC(c4ccccc4)(c4ccccc4)C3=O)c2)CC1 [Compound 1] | 4.5 |
| N=C1NC(C[C@@H]2CCCO2)(c2ccccc2)C(=O)N1Cc1ccc(C(F)(F)F)c(C(=O)N2Cc3nccnc3C2)c1 (some centres unmarked) [Compound 2] | 5.8 |
| CC(C)CC[C@]1(c2ccccc2)NC(=N)N(Cc2ccc(C(F)(F)F)c(C(=O)N3CC(O)C(F)C3)c2)C1=O (some centres unmarked) [Compound 3] | 9.6 |
| N=C1NC(c2ccc(F)cc2)(C2CCCCC2)C(=O)N1Cc1ccc(C(F)(F)F)c(C(=O)N2Cc3nccnc3C2)c1 (centres unmarked) [Compound 4] | 9.7 |
| CC(C)CC[C@]1(c2ccccc2)NC(=N)N(Cc2ccc(C(C)(C)C)c(C(=O)NCc3cccnc3)c2)C1=O [Compound 11] | 172 |
